Data published in DBAASP.
≈ marks a conversion by molar mass, not a printed value.

How the values were obtained:
Assay in all cases: ≥ marks a high value that may be exact or a test limit, other limits are often not marked, values filed in µg/mL are converted to µM
Staphylococcus aureus = system: Staphylococcus aureus
Escherichia coli JM109 = system: Escherichia coli JM109
[1] = system: Staphylococcus aureus ATCC 6538P
Escherichia coli K91BK = system: Escherichia coli K91BK
[2] = system: Bacillus anthracis Sterne 34F2
[3] = system: Bacillus subtilis var. niger ATCC 9372
[4] = system: Enterococcus faecalis CGMCC 1.595
[5] = system: Enterococcus faecium CGMCC 1.2334
Bacillus cereus AS1.126 = system: Bacillus cereus AS1.126
[6] = system: Enterobacter cloacae CGMCC 1.58
[7] = system: Lactococcus lactis AS1.1690
[8] = system: Staphylococcus aureus AS1.72
[9] = system: Klebsiella pneumoniae subsp. pneumoniae CGMCC 1.176
[10] = system: Klebsiella aerogenes CGMCC 1.876
Escherichia coli AS1.349 = system: Escherichia coli AS1.349
[11] = system: Pseudomonas aeruginosa CGMCC 1.860
[12] = system: Pseudomonas aeruginosa KCTC 1637
[13] = system: Staphylococcus aureus KCTC 1621
[14] = system: Streptococcus pyogenes KCTC 3096
[15] = system: Bacillus subtilis KCTC 1918
[16] = system: Salmonella typhimurium KCTC 1926
[17] = system: Escherichia coli KCTC 1682
[18] = system: Staphylococcus aureus KCTC 1916
[19] = system: Staphylococcus epidermidis KCTC 1917
[20] = system: Bacillus subtilis KCTC 3068
[21] = system: Streptococcus pneumoniae ATCC 49619
[22] = system: Mycobacterium tuberculosis H37Rv
[23] = system: Candida albicans KCTC 7121
[24] = system: Trichosporon beigelii KCTC 7251
[25] = system: Aspergillus flavus KCTC 7375
Proteus vulgaris = system: Proteus vulgaris
[26] = system: Bacillus megaterium KCTC 1096
[27] = system: Fusarium oxysporum KCTC 6084
Escherichia coli BL21AI = system: Escherichia coli BL21AI
[28] = system: Micrococcus luteus ATCC 10240

For CC[C@H](C)[C@H](NC(=O)[C@H](C)NC(=O)[C@H](CC(C)C)NC(=O)[C@H](CS)NC(=O)[C@H](CCCN=C(N)N)NC(=O)[C@H](C)NC(=O)[C@H](C)NC(=O)[C@H](CS)NC(=O)[C@@H](N)CC(C)C)C(=O)NCC(=O)N[C@@H](CCCN=C(N)N)C(=O)N[C@@H](CCCN=C(N)N)C(N)=O [LCAARCLAIGRR], the MIC (Staphylococcus aureus) was over 49.1 µM, the MIC (Escherichia coli JM109) was 24.6 µM (≈ 32 µg/mL) and the MIC [1] was 5.76 µM (≈ 7.49 µg/mL).
With CC[C@H](C)[C@H](NC(=O)CNC(C)=O)C(=O)NCC(=O)N[C@@H](CCCCN)C(=O)N[C@@H](Cc1ccccc1)C(=O)N[C@@H](CC(C)C)C(=O)N[C@@H](CCCCN)C(=O)N[C@@H](CCCCN)C(=O)N[C@@H](C)C(=O)N[C@@H](CCCCN)C(=O)N[C@@H](CCCCN)C(=O)N[C@@H](Cc1ccccc1)C(=O)NCC(=O)N[C@@H](CCCCN)C(=O)N[C@@H](C)C(=O)N[C@@H](Cc1ccccc1)C(=O)N[C@H](C(=O)N[C@@H](CCCCN)C(=O)N[C@H](C(=O)N[C@@H](CC(C)C)C(=O)N[C@@H](CCCCN)C(=O)N[C@@H](CCCCN)C(N)=O)[C@@H](C)CC)C(C)C [GIGKFLKKAKKFGKAFVKILKK] the MIC (Escherichia coli K91BK) was at least 100 µM, the MIC [2] was 25 µM (≈ 63 µg/mL) and the MIC [3] was 1.56 µM (≈ 3.93 µg/mL).
For NC(N)=NCCC[C@H](NC(=O)[C@H](CCCN=C(N)N)NC(=O)[C@H](Cc1c[nH]c2ccccc12)NC(=O)[C@H](Cc1ccccc1)NC(=O)[C@H](CCCN=C(N)N)NC(=O)[C@H](CCCN=C(N)N)NC(=O)[C@H](Cc1c[nH]c2ccccc12)NC(=O)[C@@H](N)CCCN=C(N)N)C(=O)O [RWRRFWRR], the MIC [4] was 12.5 µM (≈ 16.5 µg/mL), the MIC [5] was 12.5 µM (≈ 16.5 µg/mL) and the MIC (Bacillus cereus AS1.126) was 3.13 µM (≈ 4.13 µg/mL). It also gave an MIC [6] of at least 100 µM, an MIC [7] of 6.25 µM (≈ 8.24 µg/mL) and an MIC [8] of 6.25 µM (≈ 8.24 µg/mL). The MIC [9] was at least 100 µM, the MIC [10] was at least 100 µM and the MIC (Escherichia coli AS1.349) was at least 50 µM. It also gave an MIC [11] of 6.25 µM (≈ 8.24 µg/mL).
Work on CC(=O)N[C@@H](CCCCN)C(=O)N[C@@H](CC(C)C)C(=O)N[C@@H](Cc1c[nH]c2ccccc12)C(=O)N[C@@H](CCCCN)C(=O)N[C@@H](CCCCN)C(=O)N[C@@H](Cc1c[nH]c2ccccc12)C(=O)N[C@@H](CCCCN)C(=O)N[C@@H](CCCCN)C(=O)N[C@@H](Cc1c[nH]c2ccccc12)C(=O)N[C@@H](CCCCN)C(=O)N[C@@H](CCCCN)C(N)=O [KLWKKWKKWKK] yielded an MIC (Escherichia coli K91BK) of at least 100 µM, an MIC [2] of at least 100 µM and an MIC [3] of 25 µM (≈ 40.7 µg/mL).
In the case of CC[C@H](C)[C@H](NC(=O)[C@@H](NC(=O)[C@@H](N)CCCN=C(N)N)[C@@H](C)CC)C(=O)N[C@@H](CC(=O)O)C(=O)N[C@@H](CC(C)C)C(=O)N[C@@H](CC(C)C)C(=O)N[C@@H](C)C(=O)N[C@@H](CCCN=C(N)N)C(=O)N[C@H](C(=O)N[C@@H](CCCN=C(N)N)C(=O)N[C@@H](CCCN=C(N)N)C(=O)N1CCC[C@H]1C(=O)N[C@@H](CCC(N)=O)C(=O)N[C@@H](CCCCN)C(=O)N1CCC[C@H]1C(=O)N[C@@H](CCCCN)C(=O)N[C@@H](Cc1ccccc1)C(=O)N[C@H](C(=O)N[C@H](C(=O)N[C@H](C(=O)N[C@@H](Cc1c[nH]c2ccccc12)C(=O)N[C@H](C(=O)N[C@@H](CCCN=C(N)N)C(=O)O)C(C)C)C(C)C)[C@@H](C)O)C(C)C)C(C)C [RIIDLLARVRRPQKPKFVTVWVR], the MIC [12] is reported as 1.56 µM (≈ 4.44 µg/mL), the MIC [13] is reported as 3.12 µM (≈ 8.9 µg/mL) and the MIC [14] is reported as 1.56 µM (≈ 4.44 µg/mL). The MIC [15] was 1.56 µM (≈ 4.44 µg/mL), the MIC [16] was 1.56 µM (≈ 4.44 µg/mL) and the MIC [17] was 3.12 µM (≈ 8.9 µg/mL).
In the case of CC[C@H](C)[C@H](NC(=O)[C@H](CCCN=C(N)N)NC(=O)[C@H](CC(C)C)NC(=O)[C@H](CCC(N)=O)NC(=O)[C@H](CCCCN)NC(=O)[C@H](CC(C)C)NC(=O)[C@H](CC(C)C)NC(=O)[C@H](CC(C)C)NC(=O)[C@@H](NC(=O)[C@H](CCCCN)NC(=O)[C@H](CC(=O)O)NC(=O)[C@H](C)NC(=O)[C@@H](NC(=O)[C@H](CCCCN)NC(=O)[C@@H](N)CCCCN)C(C)C)C(C)C)C(=O)N[C@@H](CCSC)C(=O)N[C@@H](CCCN=C(N)N)C(=O)N[C@@H](CC(C)C)C(=O)O [KKVADKVLLLKQLRIMRL], the MIC [18] is reported as 8 µM (≈ 17.3 µg/mL), the MIC [12] is reported as at least 32 µM and the MIC [19] is reported as at least 32 µM. It also gave an MIC [16] of at least 64 µM, an MIC [20] of 2 µM (≈ 4.33 µg/mL) and an MIC [17] of 16 µM (≈ 34.7 µg/mL).
NCCCC[C@H](NC(=O)CNC(=O)CNC(=O)[C@H](CCCCN)NC(=O)[C@H](CCCCN)NC(=O)[C@H](Cc1cnc[nH]1)NC(=O)[C@H](CS)NC(=O)[C@H](CCC(N)=O)NC(=O)[C@H](CCCCN)NC(=O)[C@@H](N)Cc1ccc(O)cc1)C(=O)N[C@@H](CCCCN)C(=O)NCC(=O)N[C@@H](CO)C(=O)NCC(N)=O [YKQCHKKGGKKGSG] was tested, and the MIC [21] was at least 300 µM and the MIC [22] was at least 300 µM.
Work on CC[C@H](C)[C@H](NC(=O)[C@H](CCCCN)NC(=O)[C@H](CCCCN)NC(=O)[C@H](Cc1ccccc1)NC(=O)[C@@H](N)Cc1c[nH]c2ccccc12)C(=O)N1CCC[C@H]1C(=O)N[C@@H](CCCCN)C(=O)N[C@@H](Cc1ccccc1)C(=O)N[C@@H](CC(C)C)C(=O)N[C@@H](Cc1cnc[nH]1)C(=O)N[C@@H](CC(C)C)C(=O)N[C@@H](C)C(=O)N[C@@H](CCCCN)C(=O)N[C@@H](CCCCN)C(=O)N[C@@H](Cc1ccccc1)C(N)=O [WFKKIPKFLHLAKKF] yielded an MIC [12] of 1.56 µM (≈ 3.01 µg/mL), an MIC [23] of at least 100 µM and an MIC [13] of 3.12 µM (≈ 6.03 µg/mL). For the same molecule, the MIC [15] was 0.78 µM (≈ 1.51 µg/mL), the MIC [24] was at least 100 µM and the MIC [25] was at least 100 µM. The MIC (Proteus vulgaris) was 1.56 µM (≈ 3.01 µg/mL), the MIC [26] was 1.56 µM (≈ 3.01 µg/mL) and the MIC [17] was 12.5 µM (≈ 24.1 µg/mL). It also gave an MIC [27] of at least 100 µM.
CC[C@H](C)[C@H](NC(=O)[C@H](CCCN=C(N)N)NC(=O)[C@@H]1CCCN1C(=O)[C@H](Cc1cnc[nH]1)NC(=O)[C@@H]1CCCN1C(=O)[C@@H]1CCCN1C(=O)[C@H](CCCN=C(N)N)NC(=O)[C@@H]1CCCN1C(=O)[C@H](CCC(N)=O)NC(=O)[C@@H]1CCCN1C(=O)[C@@H](NC(=O)[C@H](Cc1ccc(O)cc1)NC(=O)[C@@H](NC(=O)[C@@H]1CCCN1C(=O)[C@H](CCCN=C(N)N)NC(=O)[C@H](CC(N)=O)NC(=O)[C@@H](N)CC(N)=O)C(C)C)[C@@H](C)CC)C(N)=O [NNRPVYIPQPRPPHPRI] was tested, and the MIC (Escherichia coli BL21AI) was 1.91 µM (≈ 3.91 µg/mL) and the MIC [28] was 15.2 µM (≈ 31.2 µg/mL).
CC[C@H](C)[C@H](NC(=O)[C@H](CCCCN)NC(=O)[C@H](CCCCN)NC(=O)[C@@H](N)Cc1c[nH]c2ccccc12)C(=O)N1CCC[C@H]1C(=O)N[C@@H](CCCCN)C(=O)N[C@@H](Cc1ccccc1)C(=O)N[C@@H](CC(C)C)C(=O)N[C@@H](Cc1cnc[nH]1)C(=O)N[C@@H](CC(C)C)C(=O)N[C@@H](C)C(=O)N[C@@H](CCCCN)C(=O)N[C@@H](CCCCN)C(=O)N[C@@H](Cc1ccccc1)C(N)=O [WKKIPKFLHLAKKF] showed an MIC [12] of 3.12 µM (≈ 5.57 µg/mL), an MIC [23] of at least 200 µM and an MIC [13] of 3.12 µM (≈ 5.57 µg/mL). The MIC [15] was 0.78 µM (≈ 1.39 µg/mL), the MIC [24] was at least 200 µM and the MIC [25] was at least 200 µM. For the same molecule, the MIC (Proteus vulgaris) was 3.12 µM (≈ 5.57 µg/mL), the MIC [26] was 1.56 µM (≈ 2.78 µg/mL) and the MIC [17] was 12.5 µM (≈ 22.3 µg/mL). For the same molecule, the MIC [27] was at least 200 µM.
